Results as given in PubChem BioAssay (NCI).
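Cultured in 96-well plates, cells were exposed to test compound for 48 hours across five concentrations. The concentration for full growth arrest is given as TGI.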

How the values were obtained:
Experiment in all cases: inhibition of tumour cell growth, NCI panel, 48 h
786-0 renal = test system: 786-0 renal
A549 NSCLC = test system: A549 NSCLC
ACHN renal = test system: ACHN renal
CAKI-1 renal = test system: CAKI-1 renal
CCRF-CEM leukemia = test system: CCRF-CEM leukemia
COLO 205 colon = test system: COLO 205 colon
DLD-1 colon = test system: DLD-1 colon
DMS 114 small cell lung = test system: DMS 114 small cell lung
DMS 273 small cell lung = test system: DMS 273 small cell lung
EKVX NSCLC = test system: EKVX NSCLC
HCC-2998 colon = test system: HCC-2998 colon
HCT-116 colon = test system: HCT-116 colon
HL-60(TB) leukemia = test system: HL-60(TB) leukemia
HOP-18 NSCLC = test system: HOP-18 NSCLC
HOP-62 NSCLC = test system: HOP-62 NSCLC
HOP-92 NSCLC = test system: HOP-92 NSCLC
HT29 colon = test system: HT29 colon
K-562 leukemia = test system: K-562 leukemia
KM12 colon = test system: KM12 colon
KM20L2 colon = test system: KM20L2 colon
LOX IMVI melanoma = test system: LOX IMVI melanoma
LXFL 529 NSCLC = test system: LXFL 529 NSCLC
M14 melanoma = test system: M14 melanoma
M19-MEL melanoma = test system: M19-MEL melanoma
MALME-3M melanoma = test system: MALME-3M melanoma
MOLT-4 leukemia = test system: MOLT-4 leukemia
NCI-H226 lung = test system: NCI-H226 lung
NCI-H23 lung = test system: NCI-H23 lung
NCI-H460 lung = test system: NCI-H460 lung
NCI-H522 lung = test system: NCI-H522 lung
OVCAR-3 ovarian = test system: OVCAR-3 ovarian
OVCAR-4 ovarian = test system: OVCAR-4 ovarian
OVCAR-5 ovarian = test system: OVCAR-5 ovarian
OVCAR-8 ovarian = test system: OVCAR-8 ovarian
RPMI-8226 leukemia = test system: RPMI-8226 leukemia
RXF 393 renal = test system: RXF 393 renal
SF-268 CNS = test system: SF-268 CNS
SF-295 CNS = test system: SF-295 CNS
SF-539 CNS = test system: SF-539 CNS
SK-MEL-2 melanoma = test system: SK-MEL-2 melanoma
SK-MEL-28 melanoma = test system: SK-MEL-28 melanoma
SK-MEL-5 melanoma = test system: SK-MEL-5 melanoma
SK-OV-3 ovarian = test system: SK-OV-3 ovarian
SN12C renal = test system: SN12C renal
SNB-19 CNS = test system: SNB-19 CNS
SNB-75 CNS = test system: SNB-75 CNS
SNB-78 CNS = test system: SNB-78 CNS
SR leukemia = test system: SR leukemia
SW-620 colon = test system: SW-620 colon
TK-10 renal = test system: TK-10 renal
U251 CNS = test system: U251 CNS
UACC-257 melanoma = test system: UACC-257 melanoma
UACC-62 melanoma = test system: UACC-62 melanoma
UO-31 renal = test system: UO-31 renal
A498 renal = test system: A498 renal
HCT-15 colon = test system: HCT-15 colon
IGROV1 ovarian = test system: IGROV1 ovarian
XF 498 CNS = test system: XF 498 CNS

Measured: TGI

N#C/C(=C/c1ccc([N+](=O)[O-])o1)c1ccccc1
> 100 µM: 786-0 renal | A549 NSCLC | ACHN renal | CAKI-1 renal | CCRF-CEM leukemia | COLO 205 colon | DLD-1 colon | DMS 114 small cell lung | DMS 273 small cell lung | EKVX NSCLC | HCC-2998 colon | HCT-116 colon | HL-60(TB) leukemia | HOP-18 NSCLC | HOP-62 NSCLC | HOP-92 NSCLC | HT29 colon | K-562 leukemia | KM12 colon | KM20L2 colon | LOX IMVI melanoma | LXFL 529 NSCLC | M14 melanoma | M19-MEL melanoma | MALME-3M melanoma | MOLT-4 leukemia | NCI-H226 lung | NCI-H23 lung | NCI-H460 lung | NCI-H522 lung | OVCAR-3 ovarian | OVCAR-4 ovarian | OVCAR-5 ovarian | OVCAR-8 ovarian | RPMI-8226 leukemia | RXF 393 renal | SF-268 CNS | SF-295 CNS | SF-539 CNS | SK-MEL-2 melanoma | SK-MEL-28 melanoma | SK-MEL-5 melanoma | SK-OV-3 ovarian | SN12C renal | SNB-19 CNS | SNB-75 CNS | SNB-78 CNS | SR leukemia | SW-620 colon | TK-10 renal | U251 CNS | UACC-257 melanoma | UACC-62 melanoma | UO-31 renal

Cc1nc2ccccc2c(=O)n1/N=C(\N=Nc1cc(Cl)ccc1Cl)c1ccc(N(C)C)cc1
79.8 µM: CAKI-1 renal
> 100 µM: 786-0 renal | A498 renal | A549 NSCLC | ACHN renal | CCRF-CEM leukemia | COLO 205 colon | DLD-1 colon | DMS 273 small cell lung | EKVX NSCLC | HCT-116 colon | HCT-15 colon | HOP-18 NSCLC | HT29 colon | IGROV1 ovarian | K-562 leukemia | KM20L2 colon | LOX IMVI melanoma | LXFL 529 NSCLC | M19-MEL melanoma | MOLT-4 leukemia | NCI-H23 lung | NCI-H460 lung | OVCAR-8 ovarian | RPMI-8226 leukemia | SF-268 CNS | SF-539 CNS | SK-MEL-28 melanoma | SK-MEL-5 melanoma | SK-OV-3 ovarian | SN12C renal | SNB-19 CNS | SW-620 colon | TK-10 renal | U251 CNS | UACC-62 melanoma | UO-31 renal
92.3 µM: NCI-H522 lung
93.6 µM: DMS 114 small cell lung
83 µM: HOP-62 NSCLC
56.5 µM: HL-60(TB) leukemia
8.35 µM: XF 498 CNS
81.8 µM: RXF 393 renal

CN(C)NC(=O)NC12CC3CC(CC(C3)C1)C2
> 100 µM: 786-0 renal | A498 renal | A549 NSCLC | ACHN renal | CAKI-1 renal | CCRF-CEM leukemia | COLO 205 colon | DMS 273 small cell lung | EKVX NSCLC | HCT-116 colon | HCT-15 colon | HL-60(TB) leukemia | HOP-92 NSCLC | HT29 colon | IGROV1 ovarian | K-562 leukemia | KM12 colon | KM20L2 colon | LOX IMVI melanoma | LXFL 529 NSCLC | M19-MEL melanoma | MOLT-4 leukemia | NCI-H226 lung | NCI-H23 lung | NCI-H460 lung | NCI-H522 lung | OVCAR-4 ovarian | OVCAR-5 ovarian | OVCAR-8 ovarian | RPMI-8226 leukemia | SF-268 CNS | SF-295 CNS | SF-539 CNS | SK-MEL-2 melanoma | SK-MEL-5 melanoma | SK-OV-3 ovarian | SN12C renal | SNB-19 CNS | SNB-75 CNS | SNB-78 CNS | SR leukemia | SW-620 colon | U251 CNS | UACC-257 melanoma | UACC-62 melanoma | UO-31 renal | XF 498 CNS
> 10 µM: RXF 393 renal | SK-MEL-28 melanoma | TK-10 renal

CCOC(=O)C(Oc1ccc(OC)c2c1C(=O)CCC2)c1ccccc1 (centres undefined)
> 100 µM: 786-0 renal | A498 renal | A549 NSCLC | ACHN renal | CAKI-1 renal | CCRF-CEM leukemia | COLO 205 colon | DLD-1 colon | DMS 114 small cell lung | DMS 273 small cell lung | EKVX NSCLC | HCC-2998 colon | HCT-116 colon | HCT-15 colon | HL-60(TB) leukemia | HOP-62 NSCLC | HT29 colon | IGROV1 ovarian | K-562 leukemia | KM12 colon | KM20L2 colon | LOX IMVI melanoma | LXFL 529 NSCLC | M14 melanoma | M19-MEL melanoma | MALME-3M melanoma | MOLT-4 leukemia | NCI-H23 lung | NCI-H460 lung | NCI-H522 lung | OVCAR-3 ovarian | OVCAR-4 ovarian | OVCAR-5 ovarian | OVCAR-8 ovarian | RPMI-8226 leukemia | SF-268 CNS | SF-295 CNS | SF-539 CNS | SK-MEL-2 melanoma | SK-MEL-28 melanoma | SK-MEL-5 melanoma | SK-OV-3 ovarian | SN12C renal | SNB-19 CNS | SNB-78 CNS | SW-620 colon | TK-10 renal | U251 CNS | UACC-257 melanoma | UACC-62 melanoma | UO-31 renal | XF 498 CNS
